In ChEMBL document CHEMBL3407459, “Synthesis and antimicrobial activity of novel structural hybrids of benzofuroxan and benzothiazole derivatives” (2015):

How the values were obtained:
Escherichia coli [1] = experiment: Antibacterial activity against Escherichia coli MG1655 harboring pRecA-lux assessed as maximum induction factor at 10^-13 M after 120 mins by luminometric analysis; type: functional, K-12 substr. MG1655
Escherichia coli [2] = experiment: Antibacterial activity against Escherichia coli MG1655 harboring pIbpA-lux assessed as maximum induction factor at 10^-13 M after 120 mins by luminometric analysis; type: functional, K-12 substr. MG1655
[3] = Activation of quorum sensing system luxR in Escherichia coli MG1655 harboring pVFR1-lux assessed as maximum induction factor at 10^-14 M after 120 mins by luminometric analysis; settings: Escherichia coli str. K-12 substr. MG1655
Vibrio sp. [4] = experiment: Antibacterial activity against Vibrio aqamarinus VKPM B-11245 assessed as toxicity index at 10^-7 M measured for 2 hrs by luminometric analysis; type: functional
Vibrio sp. [5] = experiment: Antibacterial activity against Vibrio aqamarinus VKPM B-11245 assessed as toxicity index at 10^-9 M measured for 2 hrs by luminometric analysis; type: functional
Escherichia coli [6] = experiment: Antibacterial activity against Escherichia coli MG1655 harboring pXen7 assessed as toxicity index at 10^-6 M measured for 2 hrs by luminometric analysis; type: functional, K-12 substr. MG1655
Escherichia coli [7] = experiment: Antibacterial activity against Escherichia coli MG1655 harboring pXen7 assessed as toxicity index at 10^-10 M measured for 2 hrs by luminometric analysis; type: functional, K-12 substr. MG1655
Escherichia coli [8] = experiment: Antibacterial activity against Escherichia coli MG1655 harboring pXen7 assessed as toxicity index at 10^-14 M measured for 2 hrs by luminometric analysis; type: functional, K-12 substr. MG1655
Escherichia coli [9] = experiment: Antibacterial activity against Escherichia coli MG1655 harboring pColD-lux assessed as maximum induction factor at 10^-3 M after 120 mins by luminometric analysis; type: functional, K-12 substr. MG1655
Escherichia coli [10] = experiment: Antibacterial activity against Escherichia coli MG1655 harboring pGrpE-lux assessed as maximum induction factor at 10^-3 M after 120 mins by luminometric analysis; type: functional, K-12 substr. MG1655
Escherichia coli [11] = experiment: Antibacterial activity against Escherichia coli MG1655 harboring pIbpA-lux assessed as maximum induction factor at 10^-3 M after 120 mins by luminometric analysis; type: functional, K-12 substr. MG1655
Escherichia coli [12] = experiment: Antibacterial activity against Escherichia coli MG1655 harboring pSoxS-lux assessed as maximum induction factor at 10^-4 M after 120 mins by luminometric analysis; type: functional, K-12 substr. MG1655
Escherichia coli [13] = experiment: Antibacterial activity against Escherichia coli MG1655 harboring pKatG-lux assessed as maximum induction factor at 10^-4 M after 120 mins by luminometric analysis; type: functional, K-12 substr. MG1655
Escherichia coli [14] = experiment: Antibacterial activity against Escherichia coli MG1655 harboring pColD-lux assessed as maximum induction factor at 10^-4 M after 120 mins by luminometric analysis; type: functional, K-12 substr. MG1655
Escherichia coli [15] = experiment: Antibacterial activity against Escherichia coli MG1655 harboring pGrpE-lux assessed as maximum induction factor at 10^-4 M after 120 mins by luminometric analysis; type: functional, K-12 substr. MG1655
Escherichia coli [16] = experiment: Antibacterial activity against Escherichia coli MG1655 harboring pIbpA-lux assessed as maximum induction factor at 10^-5 M after 120 mins by luminometric analysis; type: functional, K-12 substr. MG1655
[17] = Activation of quorum sensing system luxR in Escherichia coli MG1655 harboring pVFR1-lux assessed as maximum induction factor at 10^-5 M after 120 mins by luminometric analysis; settings: Escherichia coli str. K-12 substr. MG1655
Escherichia coli [18] = experiment: Antibacterial activity against Escherichia coli MG1655 harboring pColD-lux assessed as maximum induction factor at 10^-6 M after 120 mins by luminometric analysis; type: functional, K-12 substr. MG1655
Escherichia coli [19] = experiment: Antibacterial activity against Escherichia coli MG1655 harboring pSoxS-lux assessed as maximum induction factor at 10^-7 M after 120 mins by luminometric analysis; type: functional, K-12 substr. MG1655
Escherichia coli [20] = experiment: Antibacterial activity against Escherichia coli MG1655 harboring pKatG-lux assessed as maximum induction factor at 10^-7 M after 120 mins by luminometric analysis; type: functional, K-12 substr. MG1655
Escherichia coli [21] = experiment: Antibacterial activity against Escherichia coli MG1655 harboring pGrpE-lux assessed as maximum induction factor at 10^-7 M after 120 mins by luminometric analysis; type: functional, K-12 substr. MG1655
Escherichia coli [22] = experiment: Antibacterial activity against Escherichia coli MG1655 harboring pIbpA-lux assessed as maximum induction factor at 10^-7 M after 120 mins by luminometric analysis; type: functional, K-12 substr. MG1655
[23] = Activation of quorum sensing system luxR in Escherichia coli MG1655 harboring pVFR1-lux assessed as maximum induction factor at 10^-7 M after 120 mins by luminometric analysis; settings: Escherichia coli str. K-12 substr. MG1655
[24] = Activation of quorum sensing system luxR in Escherichia coli MG1655 harboring pVFR1-lux assessed as maximum induction factor at 10^-8 M after 120 mins by luminometric analysis; settings: Escherichia coli str. K-12 substr. MG1655
[25] = Activation of quorum sensing system luxR in Escherichia coli MG1655 harboring pVFR1-lux assessed as maximum induction factor at 10^-9 M after 120 mins by luminometric analysis; settings: Escherichia coli str. K-12 substr. MG1655
Escherichia coli [26] = experiment: Antibacterial activity against Escherichia coli MG1655 harboring pSoxS-lux assessed as maximum induction factor at 10^-10 M after 120 mins by luminometric analysis; type: functional, K-12 substr. MG1655
Escherichia coli [27] = experiment: Antibacterial activity against Escherichia coli MG1655 harboring pIbpA-lux assessed as maximum induction factor at 10^-10 M after 120 mins by luminometric analysis; type: functional, K-12 substr. MG1655
[28] = Activation of quorum sensing system luxR in Escherichia coli MG1655 harboring pVFR1-lux assessed as maximum induction factor at 10^-10 M after 120 mins by luminometric analysis; settings: Escherichia coli str. K-12 substr. MG1655

What does the source list for `O=[N+]([O-])c1cc([N+](=O)[O-])c2no[n+]([O-])c2c1Sc1nc2ccccc2s1`?
Activity (Escherichia coli [1]): 0.98; Activity (Escherichia coli [2]): 1.37; Activity [3]: 2.87; Activity (Vibrio sp. [4]): 22.52; Activity (Vibrio sp. [5]): 0; Activity (Escherichia coli [6]): 10.3; Activity (Escherichia coli [7]): 3.82; Activity (Escherichia coli [8]): 2.74; Activity (Escherichia coli [9]): 0.08; Activity (Escherichia coli [10]): 0.35; Activity (Escherichia coli [11]): 1.19; Activity (Escherichia coli [12]): 2.71; Activity (Escherichia coli [13]): 0.3; Activity (Escherichia coli [14]): 1.48; Activity (Escherichia coli [15]): 0.51; Activity (Escherichia coli [16]): 1.08; Activity [17]: 1.64; Activity (Escherichia coli [18]): 1.04; Activity (Escherichia coli [19]): 1.02; Activity (Escherichia coli [20]): 0.91; Activity (Escherichia coli [21]): 1.02; Activity (Escherichia coli [22]): 1.12; Activity [23]: 1.71; Activity [24]: 2.77; Activity [25]: 1.74; Activity (Escherichia coli [26]): 1.33; Activity (Escherichia coli [27]): 1.14; Activity [28]: 3.59
